{"source": "ChEMBL document CHEMBL1201862", "about": "“PubChem BioAssay data set” (2004)", "key": {"Cytochrome P450 2C19": {"biological_target": "Cytochrome P450 2C19 (Homo sapiens, UniProt P33261)", "sequence (P33261 whole entry)": "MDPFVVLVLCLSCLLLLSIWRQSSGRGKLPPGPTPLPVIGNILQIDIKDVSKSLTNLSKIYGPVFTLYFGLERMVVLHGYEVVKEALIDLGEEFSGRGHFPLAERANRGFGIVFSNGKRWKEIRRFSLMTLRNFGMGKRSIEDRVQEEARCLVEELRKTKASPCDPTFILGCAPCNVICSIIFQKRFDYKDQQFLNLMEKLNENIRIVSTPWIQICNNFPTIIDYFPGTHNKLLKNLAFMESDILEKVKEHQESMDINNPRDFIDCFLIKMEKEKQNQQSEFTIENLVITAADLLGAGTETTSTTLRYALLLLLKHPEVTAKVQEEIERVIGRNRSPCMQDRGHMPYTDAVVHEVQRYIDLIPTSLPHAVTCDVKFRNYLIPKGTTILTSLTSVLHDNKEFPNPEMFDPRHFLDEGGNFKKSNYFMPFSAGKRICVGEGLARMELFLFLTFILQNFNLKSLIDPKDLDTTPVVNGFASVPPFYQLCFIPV", "assay": "Cytochrome panel assay with activity outcomes. Panel member name: p450-cyp2c19 Compounds with AC50 equal or less than 10 uM are considered active", "assay_type": "functional", "conditions": "read-out: AC50"}, "Cytochrome P450 2D6": {"biological_target": "Cytochrome P450 2D6 (Homo sapiens, UniProt P10635)", "sequence (P10635 whole entry)": "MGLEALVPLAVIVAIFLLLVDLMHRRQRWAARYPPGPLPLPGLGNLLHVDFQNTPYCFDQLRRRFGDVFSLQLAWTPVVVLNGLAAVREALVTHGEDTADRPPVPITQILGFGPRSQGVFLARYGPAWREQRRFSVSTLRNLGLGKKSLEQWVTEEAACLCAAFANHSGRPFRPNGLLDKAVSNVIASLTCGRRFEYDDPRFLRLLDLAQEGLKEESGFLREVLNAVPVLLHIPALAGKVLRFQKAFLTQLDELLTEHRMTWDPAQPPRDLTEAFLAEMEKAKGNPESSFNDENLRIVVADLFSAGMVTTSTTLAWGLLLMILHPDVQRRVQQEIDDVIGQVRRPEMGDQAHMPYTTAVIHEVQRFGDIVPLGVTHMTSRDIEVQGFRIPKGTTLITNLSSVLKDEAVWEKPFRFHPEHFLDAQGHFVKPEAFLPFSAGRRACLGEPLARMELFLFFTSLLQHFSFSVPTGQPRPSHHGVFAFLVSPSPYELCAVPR"}, "Cytochrome P450 2C9": {"biological_target": "Cytochrome P450 2C9 (Homo sapiens, UniProt P11712)", "sequence (P11712 whole entry)": "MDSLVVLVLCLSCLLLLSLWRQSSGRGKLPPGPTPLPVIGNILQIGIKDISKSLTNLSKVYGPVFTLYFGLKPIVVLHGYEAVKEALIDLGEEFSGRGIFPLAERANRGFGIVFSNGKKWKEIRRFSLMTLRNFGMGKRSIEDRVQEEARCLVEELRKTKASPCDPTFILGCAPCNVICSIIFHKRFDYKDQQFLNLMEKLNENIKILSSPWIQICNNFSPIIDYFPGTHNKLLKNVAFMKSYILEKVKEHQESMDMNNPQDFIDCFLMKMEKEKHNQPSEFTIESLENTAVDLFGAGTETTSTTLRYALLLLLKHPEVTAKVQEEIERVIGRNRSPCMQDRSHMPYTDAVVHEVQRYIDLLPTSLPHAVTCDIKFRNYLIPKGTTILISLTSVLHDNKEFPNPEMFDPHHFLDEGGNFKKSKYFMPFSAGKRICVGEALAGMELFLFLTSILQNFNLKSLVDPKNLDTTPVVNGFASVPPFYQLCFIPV"}, "[1]": {"biological_target": "T1, Heat shock factor protein 1 (Mus musculus, UniProt P38532)", "T1 sequence (P38532 whole entry)": "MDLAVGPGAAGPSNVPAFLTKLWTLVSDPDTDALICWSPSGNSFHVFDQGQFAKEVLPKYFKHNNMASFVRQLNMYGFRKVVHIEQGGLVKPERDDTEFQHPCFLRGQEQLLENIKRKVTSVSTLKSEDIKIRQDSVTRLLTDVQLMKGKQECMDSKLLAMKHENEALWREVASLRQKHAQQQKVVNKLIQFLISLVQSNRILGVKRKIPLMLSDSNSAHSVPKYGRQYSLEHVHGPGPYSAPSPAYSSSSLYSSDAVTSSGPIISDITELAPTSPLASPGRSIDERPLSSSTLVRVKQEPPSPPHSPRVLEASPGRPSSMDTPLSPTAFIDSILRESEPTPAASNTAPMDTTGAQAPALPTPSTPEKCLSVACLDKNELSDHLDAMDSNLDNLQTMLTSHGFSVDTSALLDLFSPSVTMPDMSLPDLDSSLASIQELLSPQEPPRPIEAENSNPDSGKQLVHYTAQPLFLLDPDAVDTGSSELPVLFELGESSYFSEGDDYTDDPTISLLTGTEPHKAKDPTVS", "assay": "decrease of HSF1-responsive luciferase luminescence – cell-based, NIH3T3, dose retest, confirmation (AID 2382);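 further: NIH3T3 fibroblasts with HSF1-driven luciferase reporter stressed by proteasome inhibitor MG132; luminescence from HSF1-driven luciferase expression after 8 hours of MG132 stress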", "assay_type": "functional"}, "[2]": {"assay": "reduction of Shn3 3'UTR-driven luciferase in osteoblasts – cell-based, Clone20 osteoblasts, firefly luciferase, cherry-picked, dose response (AID 624132)", "assay_type": "functional"}, "[3]": {"assay": "A549 cell cytotoxicity, dose response, cytotoxicity control, plate reader, cherry-pick, antagonist series (AID 743412)", "assay_type": "functional, cell-based"}, "[4]": {"assay": "toxicity toward HepG2 liver cells – cell-based, plate reader, cherry-pick, antagonist series, cytotoxicity control, dose response (AID 743416)", "assay_type": "functional"}, "[5]": {"assay": "blockers of bursicon-stimulated LGR2 cAMP reporter – cell-based, HEK293, CRE-luciferase reporter, cherry pick, set 2, dose response (AID 743343);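 further: transfected cells were stimulated with diluted bursicon conditioned medium after compound addition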", "assay_type": "functional"}, "[6]": {"assay": "blockade of melanocortin 4 receptor signaling – cell-based, plate reader, cherry pick, counter-screen for LGR2 antagonist project, dose response (AID 743444);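 further: transfected HEK 293 cells stimulated with alpha-MSH peptide; potency of inhibitors of the alpha-MSH evoked signal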", "assay_type": "functional"}, "[7]": {"assay": "viability loss in HEK293 cells – cell-based, plate reader, cherry-picked samples, cytotoxicity control, dose response (AID 743446)", "assay_type": "functional"}, "Cytochrome P450 3A4": {"biological_target": "Cytochrome P450 3A4 (Homo sapiens, UniProt P08684)", "sequence (P08684 whole entry)": "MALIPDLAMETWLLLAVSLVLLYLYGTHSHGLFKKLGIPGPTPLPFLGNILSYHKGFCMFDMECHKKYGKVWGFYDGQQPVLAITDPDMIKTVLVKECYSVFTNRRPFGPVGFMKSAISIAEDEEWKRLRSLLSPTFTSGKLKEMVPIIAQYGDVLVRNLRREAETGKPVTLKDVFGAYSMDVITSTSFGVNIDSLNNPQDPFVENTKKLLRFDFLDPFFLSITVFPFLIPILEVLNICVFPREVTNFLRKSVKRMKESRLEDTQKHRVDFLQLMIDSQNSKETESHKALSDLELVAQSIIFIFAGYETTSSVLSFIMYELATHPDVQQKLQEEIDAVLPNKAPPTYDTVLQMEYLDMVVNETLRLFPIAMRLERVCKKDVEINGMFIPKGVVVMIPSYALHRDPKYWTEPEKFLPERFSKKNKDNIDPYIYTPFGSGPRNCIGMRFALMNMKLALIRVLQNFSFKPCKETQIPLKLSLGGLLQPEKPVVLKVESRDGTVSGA"}, "Vero": {"tested_on": "Vero", "assay": "cells", "assay_type": "functional, cell-based", "conditions": "Chlorocebus sabaeus"}, "[8]": {"biological_target": "T2, Microphthalmia-associated transcription factor (Homo sapiens, UniProt O75030)", "T2 sequence (O75030 whole entry)": "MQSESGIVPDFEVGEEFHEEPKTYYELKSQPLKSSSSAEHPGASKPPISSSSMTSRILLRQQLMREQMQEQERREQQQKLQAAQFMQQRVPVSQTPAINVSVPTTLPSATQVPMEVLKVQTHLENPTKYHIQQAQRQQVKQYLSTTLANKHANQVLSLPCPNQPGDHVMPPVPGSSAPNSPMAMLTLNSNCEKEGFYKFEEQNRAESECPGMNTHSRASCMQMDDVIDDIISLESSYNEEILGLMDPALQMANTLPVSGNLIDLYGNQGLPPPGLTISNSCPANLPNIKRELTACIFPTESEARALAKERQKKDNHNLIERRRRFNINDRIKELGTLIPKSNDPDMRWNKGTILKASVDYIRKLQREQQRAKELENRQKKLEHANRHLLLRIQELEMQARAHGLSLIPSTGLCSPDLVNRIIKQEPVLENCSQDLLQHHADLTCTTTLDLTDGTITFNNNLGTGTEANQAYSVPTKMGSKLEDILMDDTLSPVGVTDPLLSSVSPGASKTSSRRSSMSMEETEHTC", "assay": "reducers of TRPM1 reporter luminescence, concentration series – cell-based, SK-MEL-5, cherry-picked, set 3, MITF inhibitor project, dose response (AID 493073)", "assay_type": "functional"}, "INS1": {"tested_on": "INS1", "assay": "INS-1E survival protection against cytokine death – cell-based, luminescence, retest, dose response (AID 449756);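 further: cell death triggered by IL-1 beta plus TNF-alpha plus IFN-gamma mixture; protective hits raise ATP signal compared with cytokine alone wells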", "assay_type": "functional", "conditions": "Rattus norvegicus"}, "Caspase-6": {"biological_target": "T3, Caspase-6 (Homo sapiens, UniProt P55212)", "T3 sequence (P55212 whole entry)": "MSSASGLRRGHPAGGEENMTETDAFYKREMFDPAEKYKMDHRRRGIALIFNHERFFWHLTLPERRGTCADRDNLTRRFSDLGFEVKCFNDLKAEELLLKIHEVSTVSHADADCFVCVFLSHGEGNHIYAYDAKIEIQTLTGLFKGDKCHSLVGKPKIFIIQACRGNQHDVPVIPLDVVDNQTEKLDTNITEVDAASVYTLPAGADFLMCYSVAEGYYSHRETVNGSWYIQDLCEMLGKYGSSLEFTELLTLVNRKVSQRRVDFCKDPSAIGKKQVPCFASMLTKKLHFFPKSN", "assay": "inhibition of CASP6 peptide cleavage – biochemical, VEID-R110 fluorescence, cherry-pick, dose response (AID 720632)"}, "[9]": {"assay": "growth inhibition of yeast DHODH-expressing 3D7 parasites – SYBR Green, dry powder samples, dose response (AID 1159570);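 further: parasite growth measured after 72 hours of compound exposure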", "assay_type": "functional, cell-based"}, "[10]": {"assay": "P. falciparum Dd2 growth inhibitors, dose response, SYBR Green, cherry-picked samples (AID 1159567)", "assay_type": "functional, cell-based"}, "[11]": {"assay": "Dd2 malaria parasite growth inhibition potency – SYBR Green, dry powder samples, dose response (AID 1159566);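 further: potency for growth inhibition with lower SYBR green DNA signal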", "assay_type": "functional, cell-based"}, "[12]": {"assay": "growth inhibition of PfATP4-mutant resistant parasites – NITD609-resistant line, SYBR Green, dry powder, dose response (AID 1159571);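 further: parasites synchronized at ring stage by sorbitol before testing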", "assay_type": "functional, cell-based"}, "[13]": {"biological_target": "Nuclear receptor subfamily 5 group A member 2 (Homo sapiens, UniProt O00482)", "sequence (O00482 whole entry)": "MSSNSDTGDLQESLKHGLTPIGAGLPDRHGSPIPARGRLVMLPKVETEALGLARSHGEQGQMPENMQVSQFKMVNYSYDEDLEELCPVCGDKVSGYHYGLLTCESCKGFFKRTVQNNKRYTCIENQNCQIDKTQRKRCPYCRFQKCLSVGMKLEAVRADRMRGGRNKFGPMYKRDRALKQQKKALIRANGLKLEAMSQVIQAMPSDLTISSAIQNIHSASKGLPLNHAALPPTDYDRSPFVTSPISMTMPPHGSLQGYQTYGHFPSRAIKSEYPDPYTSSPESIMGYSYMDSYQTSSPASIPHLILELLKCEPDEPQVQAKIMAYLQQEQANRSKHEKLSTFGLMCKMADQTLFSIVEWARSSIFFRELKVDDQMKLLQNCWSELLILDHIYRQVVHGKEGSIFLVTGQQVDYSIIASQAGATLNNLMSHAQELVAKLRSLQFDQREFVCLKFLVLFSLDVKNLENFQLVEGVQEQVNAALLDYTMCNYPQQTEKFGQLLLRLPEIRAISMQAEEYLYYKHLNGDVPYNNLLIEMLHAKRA", "assay_type": "functional, cell-based"}, "Steroidogenic factor 1": {"biological_target": "Steroidogenic factor 1 (Homo sapiens, UniProt Q13285)", "sequence (Q13285 whole entry)": "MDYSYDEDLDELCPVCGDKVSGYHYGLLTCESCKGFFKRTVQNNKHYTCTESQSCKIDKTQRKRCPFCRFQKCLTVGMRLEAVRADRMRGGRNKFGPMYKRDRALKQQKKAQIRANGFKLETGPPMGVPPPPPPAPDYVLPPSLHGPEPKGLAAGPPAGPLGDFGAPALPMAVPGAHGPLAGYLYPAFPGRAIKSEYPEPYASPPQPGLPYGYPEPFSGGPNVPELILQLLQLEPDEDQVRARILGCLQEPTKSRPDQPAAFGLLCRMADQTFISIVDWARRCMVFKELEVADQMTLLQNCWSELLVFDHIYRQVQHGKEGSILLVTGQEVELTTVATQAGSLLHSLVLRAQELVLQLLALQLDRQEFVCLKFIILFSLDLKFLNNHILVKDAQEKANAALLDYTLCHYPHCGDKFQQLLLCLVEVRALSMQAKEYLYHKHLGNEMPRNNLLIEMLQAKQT", "assay": "Counterscreen for inverse agonists of the liver receptor homolog-1 (LRH-1; NR5A2): Luminescence-based cell-based high throughput dose response assay to identify inverse agonists of the Steroidogenic Factor 1 Nuclear Receptor (SF1; NR5A1).", "assay_type": "functional"}, "[14]": {"assay": "nonselective StAR promoter luciferase inhibitors – cell-based, luminescence, luciferase reporter, counter-screen for LRH-1 inverse agonist project, dose response (AID 651969)", "assay_type": "functional"}}, "note": "The source made the active and inactive calls."}
{"smiles": "COc1ccccc1OCCCCCc1c(C)n[nH]c1C", "values": [{"measurement": "AC50", "setting": "Cytochrome P450 2C19", "value": "1.58 µM (inconclusive)"}, {"measurement": "AC50", "setting": "Cytochrome P450 2D6", "value": "11.2 µM (inconclusive)"}, {"measurement": "AC50", "setting": "Cytochrome P450 2C9", "value": "inconclusive"}]}
{"smiles": "COc1ccc(-c2nsc3c(N4CCCCC4C)ncnc23)cc1", "note": "(configuration not stated)", "values": [{"measurement": "EC50", "setting": "[1]", "value": "< 0.16 µM (active)"}, {"measurement": "AC50", "setting": "[2]", "value": "< 0.26 µM (active)"}, {"measurement": "AC50", "setting": "[3]", "value": "> 52 µM (inactive)"}, {"measurement": "AC50", "setting": "[4]", "value": "> 52 µM (inactive)"}, {"measurement": "AC50", "setting": "[5]", "value": "0.135 µM (active)"}, {"measurement": "AC50", "setting": "[6]", "value": "0.134 µM (active)"}, {"measurement": "AC50", "setting": "[7]", "value": "> 52 µM (inactive)"}]}
{"smiles": "O=C1c2ccccc2C(=O)N1Cc1cc(-c2ccccc2Cl)no1", "values": [{"measurement": "AC50", "setting": "Cytochrome P450 2D6", "value": "3.16 µM (inconclusive)"}, {"measurement": "AC50", "setting": "Cytochrome P450 3A4", "value": "39.8 µM (inconclusive)"}, {"measurement": "AC50", "setting": "Cytochrome P450 2C9", "value": "inconclusive"}]}
{"smiles": "O=C1C2CCCN2C(c2ccc(F)cc2)N1c1ccc(Cl)cc1", "note": "(configuration not stated)", "values": [{"measurement": "IC50", "setting": "Vero", "value": "> 25 µM (active)"}]}
{"smiles": "C/C(=N\\NC(=O)C(c1ccccc1)c1ccccc1)c1ccccn1", "values": [{"measurement": "AC50", "setting": "[8]", "value": "5.96 µM (active)"}, {"measurement": "AC50", "setting": "INS1", "value": "1.3 µM (active)"}]}
{"smiles": "COc1ccc(CCC(=O)Nc2ccc(S(=O)(=O)Nc3nccc(C)n3)cc2)cc1", "values": [{"measurement": "AC50", "setting": "Caspase-6", "value": "47.1 µM (active)"}]}
{"smiles": "COc1ccc(NC(=O)N(C)C[C@@H]2Oc3cc(-c4ccc(C)cc4)ccc3S(=O)(=O)N([C@H](C)CO)C[C@@H]2C)cc1", "values": [{"measurement": "AC50", "setting": "[9]", "value": "3.13 µM (active)"}, {"measurement": "AC50", "setting": "[10]", "value": "2.58 µM (active)"}, {"measurement": "AC50", "setting": "[11]", "value": "2.25 µM (active)"}, {"measurement": "AC50", "setting": "[12]", "value": "3.25 µM (active)"}]}
{"smiles": "C=CCNC(=S)N/N=C/c1ccc(-c2cc(Cl)ccc2Cl)o1", "values": [{"measurement": "AC50", "setting": "Cytochrome P450 2C19", "value": "3.16 µM (inconclusive)"}, {"measurement": "AC50", "setting": "Cytochrome P450 3A4", "value": "10 µM (inconclusive)"}, {"measurement": "AC50", "setting": "Cytochrome P450 2C9", "value": "inconclusive"}]}
{"smiles": "COc1ccc(Cl)cc1NC(=O)CN1C(=O)CSC1=O", "values": [{"measurement": "AC50", "setting": "Cytochrome P450 2C19", "value": "39.8 µM (inconclusive)"}, {"measurement": "AC50", "setting": "Cytochrome P450 2D6", "value": "5.62 µM (inconclusive)"}, {"measurement": "AC50", "setting": "Cytochrome P450 2C9", "value": "inconclusive"}]}
{"smiles": "COCCNc1ccc([N+](=O)[O-])cc1C(=O)NC1CCCc2ccccc21", "note": "(configuration not stated)", "values": [{"measurement": "IC50", "setting": "[13]", "value": "9.5 µM (active)"}, {"measurement": "IC50", "setting": "Steroidogenic factor 1", "value": "5.53 µM (active)"}, {"measurement": "IC50", "setting": "[14]", "value": "35.9 µM (inactive)"}]}
{"smiles": "CCOc1ccc(NC(=O)Cn2nnc(C(=O)NCc3ccccc3OC)c2N)cc1", "values": [{"measurement": "AC50", "setting": "Cytochrome P450 2C19", "value": "5.01 µM (inconclusive)"}, {"measurement": "AC50", "setting": "Cytochrome P450 2C9", "value": "inconclusive"}]}
